In patent publication US12084419B2, “Cell metabolism modulating compounds and uses thereof” (CRESCENTA BIOSCIENCES, priority 2020, dated 2024):

Target: T1, His6 tagged human recombinant FABP4 (Homo sapiens, UniProt P15090)
T1 construct: purchased Cayman Chemicals 10009549
Assay: FABP4 TR-FRET assay: displacement of BODIPY FL C12 fatty acid
Conditions: triplicates, inhibition of BODIPY FL C12 binding; for inhibition at 1 µM: 1 μM compound; for inhibition at 10 µM: 10 μM compound
Summary of the method: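 TR-FRET with a Tb anti-His6 antibody donor and BODIPY FL C12 as acceptor; compounds came from 0.362 and 0.0362 mM DMSO stocks. Protein (83 nM) and antibody (49.6 nM) solutions were premixed 30 min on ice in 25 mM Tris pH 7.4 with γ-globulins, NP-40 and DTT. Incubation was 10 min at room temperature; inhibition came from the 520/615 nm ratio.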

T1 sequence (P15090 whole entry): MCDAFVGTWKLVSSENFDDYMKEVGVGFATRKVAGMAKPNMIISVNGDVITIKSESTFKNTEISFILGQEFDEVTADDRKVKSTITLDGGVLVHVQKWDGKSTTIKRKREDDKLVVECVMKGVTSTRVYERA

CCC1CCc2c(c3cccc(C(=O)O)c3n2Cc2cccc(C#N)c2)C1 (stereo not drawn) [9-[(3-cyanophenyl)methyl]-3-ethyl-2,3,4,9-tetrahydro-1H-carbazole-8-carboxylic acid]
inhibition at 1 µM: 45.8%
inhibition at 10 µM: 90.3%

CCCCCC1CCc2c(c3cccc(C(=O)O)c3n2Cc2cccc(C#N)c2)C1 (stereo not drawn) [9-[(3-cyanophenyl)methyl]-3-pentyl-2,3,4,9-tetrahydro-1H-carbazole-8-carboxylic acid]
inhibition at 1 µM: 57.4%
inhibition at 10 µM: 83.3%

CCCC1CCc2c(c3cccc(C(=O)O)c3n2Cc2cccc(C#N)c2)C1 (stereo not drawn) [9-[(3-cyanophenyl)methyl]-3-propyl-2,3,4,9-tetrahydro-1H-carbazole-8-carboxylic acid]
inhibition at 1 µM: 46.8%
inhibition at 10 µM: 85.4%

N#Cc1cccc(Cn2c3c(c4cccc(C(=O)O)c42)C(CCc2ccccc2)CCC3)c1 (stereo not drawn) [9-[(3-cyanophenyl)methyl]-4-(2-phenylethyl)-2,3,4,9-tetrahydro-1H-carbazole-8-carboxylic acid]
inhibition at 1 µM: 31%
inhibition at 10 µM: 53.4%

CCCCCC1CCCc2c1c1cccc(C(=O)O)c1n2Cc1cccc(C#N)c1 (stereo not drawn) [9-[(3-cyanophenyl)methyl]-4-pentyl-2,3,4,9-tetrahydro-1H-carbazole-8-carboxylic acid]
inhibition at 1 µM: 26.3%
inhibition at 10 µM: 73.7%

CCCCCCC1CCc2c(n(Cc3ccc(C(N)=O)cc3)c3c(C(=O)O)cccc23)C1 (stereo not drawn) [9-[(4-carbamoylphenyl)methyl]-2-hexyl-2,3,4,9-tetrahydro-1H-carbazole-8-carboxylic acid]
inhibition at 1 µM: 87.3%
inhibition at 10 µM: 89.3%

CCCCCCC1CCc2c(n(Cc3ccc(C#N)cc3)c3c(C(=O)O)cccc23)C1 (stereo not drawn) [9-[(4-cyanophenyl)methyl]-2-hexyl-2,3,4,9-tetrahydro-1H-carbazole-8-carboxylic acid]
inhibition at 1 µM: 39.7%
inhibition at 10 µM: 78.9%

CCCCC1CCCCc2c1c1cccc(C(=O)O)c1n2Cc1cccc(C(N)=O)c1 (stereo not drawn) [10-butyl-5-[(3-carbamoylphenyl)methyl]-5H,6H,7H,8H,9H,10H-cyclohepta[b]indole-4-carboxylic acid]
inhibition at 1 µM: 63.3%
inhibition at 10 µM: 87.9%

CCCCC1CCCCc2c1c1cccc(C(=O)O)c1n2Cc1cccc(C#N)c1 (stereo not drawn) [10-butyl-5-[(3-cyanophenyl)methyl]-5H,6H,7H,8H,9H,10H-cyclohepta[b]indole-4-carboxylic acid]
inhibition at 1 µM: 30.9%
inhibition at 10 µM: 73.6%
